Holding throughout (test): KinomeScan kinase panel, single concentration 10 µM
Holding throughout (assay type): binding

Test [1] addresses T1, KinomeScan kinase panel (Homo sapiens, UniProt P43403).
T1 construct: purchased DiscoveRx (KinomeScan)
T1 sequence (P43403 1-619): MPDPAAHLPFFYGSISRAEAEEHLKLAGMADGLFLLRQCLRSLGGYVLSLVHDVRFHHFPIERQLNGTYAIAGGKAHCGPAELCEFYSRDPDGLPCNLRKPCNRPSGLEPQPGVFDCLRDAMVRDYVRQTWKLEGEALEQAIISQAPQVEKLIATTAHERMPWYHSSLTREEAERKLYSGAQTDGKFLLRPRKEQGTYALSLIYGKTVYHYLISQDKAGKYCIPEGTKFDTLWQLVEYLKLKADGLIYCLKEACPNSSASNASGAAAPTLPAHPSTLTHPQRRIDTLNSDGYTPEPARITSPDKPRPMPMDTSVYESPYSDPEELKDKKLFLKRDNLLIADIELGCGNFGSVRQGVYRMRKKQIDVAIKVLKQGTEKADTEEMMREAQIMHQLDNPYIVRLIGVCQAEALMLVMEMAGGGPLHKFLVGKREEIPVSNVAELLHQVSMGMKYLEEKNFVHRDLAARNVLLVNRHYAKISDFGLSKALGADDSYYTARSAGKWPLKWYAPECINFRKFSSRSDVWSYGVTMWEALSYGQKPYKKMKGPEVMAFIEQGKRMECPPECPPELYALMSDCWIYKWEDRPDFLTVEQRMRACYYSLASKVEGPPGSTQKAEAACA
The settings on record: kinase ZAP70; 10 µM; read-out: score (%).

Test [2] has as its target T2, KinomeScan kinase panel (Homo sapiens, UniProt P27448).
T2 construct: purchased DiscoveRx (KinomeScan)
The settings on record: MARK3, 10 µM; read-out: score (%).

Test [3] concerns the target T3, KinomeScan kinase panel (Homo sapiens, UniProt P51812).
T3 construct: purchased DiscoveRx (KinomeScan)
The settings on record: 10 µM, read-out: score (%).

Test [4] concerns the target T4, KinomeScan kinase panel (Homo sapiens, UniProt Q13237).
T4 construct: purchased DiscoveRx (KinomeScan)
T4 sequence (Q13237 1-762): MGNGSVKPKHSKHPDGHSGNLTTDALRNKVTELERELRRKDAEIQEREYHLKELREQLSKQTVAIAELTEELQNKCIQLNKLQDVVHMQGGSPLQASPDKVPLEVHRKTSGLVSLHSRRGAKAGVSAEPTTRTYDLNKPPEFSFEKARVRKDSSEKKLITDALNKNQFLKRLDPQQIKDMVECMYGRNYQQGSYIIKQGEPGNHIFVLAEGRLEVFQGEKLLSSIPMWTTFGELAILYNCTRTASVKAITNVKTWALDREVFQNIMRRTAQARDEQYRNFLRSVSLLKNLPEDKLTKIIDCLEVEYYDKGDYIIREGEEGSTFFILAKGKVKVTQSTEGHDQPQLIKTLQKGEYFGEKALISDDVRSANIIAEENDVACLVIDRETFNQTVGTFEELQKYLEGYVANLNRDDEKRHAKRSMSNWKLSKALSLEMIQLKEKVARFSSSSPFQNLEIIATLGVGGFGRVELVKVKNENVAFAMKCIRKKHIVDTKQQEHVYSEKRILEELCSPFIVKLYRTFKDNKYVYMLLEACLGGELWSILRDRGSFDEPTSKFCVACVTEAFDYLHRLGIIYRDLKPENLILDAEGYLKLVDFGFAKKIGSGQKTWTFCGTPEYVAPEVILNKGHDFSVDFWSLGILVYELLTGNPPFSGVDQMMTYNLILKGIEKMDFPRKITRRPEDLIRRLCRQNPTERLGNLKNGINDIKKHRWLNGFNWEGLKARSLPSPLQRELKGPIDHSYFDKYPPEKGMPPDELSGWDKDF
The settings on record: read-out: score (%).

In test [5] the target is T5, KinomeScan kinase panel (Homo sapiens, UniProt P22607, G697C).
T5 construct: purchased DiscoveRx (KinomeScan)
The note with it: FGFR3(G697C), 10 µM; read-out: score (%).

The target of test [6] is T6, KinomeScan kinase panel (Homo sapiens, UniProt O95819).
T6 construct: purchased DiscoveRx (KinomeScan)
The note with it: MAP4K4, 10 µM; read-out: score (%).

In test [7] the test system is KinomeScan kinase panel.
Test [8] has as its target T7, KinomeScan kinase panel (Homo sapiens, UniProt P52333).
T7 construct: purchased DiscoveRx (KinomeScan)
T7 sequence (P52333 1-1124): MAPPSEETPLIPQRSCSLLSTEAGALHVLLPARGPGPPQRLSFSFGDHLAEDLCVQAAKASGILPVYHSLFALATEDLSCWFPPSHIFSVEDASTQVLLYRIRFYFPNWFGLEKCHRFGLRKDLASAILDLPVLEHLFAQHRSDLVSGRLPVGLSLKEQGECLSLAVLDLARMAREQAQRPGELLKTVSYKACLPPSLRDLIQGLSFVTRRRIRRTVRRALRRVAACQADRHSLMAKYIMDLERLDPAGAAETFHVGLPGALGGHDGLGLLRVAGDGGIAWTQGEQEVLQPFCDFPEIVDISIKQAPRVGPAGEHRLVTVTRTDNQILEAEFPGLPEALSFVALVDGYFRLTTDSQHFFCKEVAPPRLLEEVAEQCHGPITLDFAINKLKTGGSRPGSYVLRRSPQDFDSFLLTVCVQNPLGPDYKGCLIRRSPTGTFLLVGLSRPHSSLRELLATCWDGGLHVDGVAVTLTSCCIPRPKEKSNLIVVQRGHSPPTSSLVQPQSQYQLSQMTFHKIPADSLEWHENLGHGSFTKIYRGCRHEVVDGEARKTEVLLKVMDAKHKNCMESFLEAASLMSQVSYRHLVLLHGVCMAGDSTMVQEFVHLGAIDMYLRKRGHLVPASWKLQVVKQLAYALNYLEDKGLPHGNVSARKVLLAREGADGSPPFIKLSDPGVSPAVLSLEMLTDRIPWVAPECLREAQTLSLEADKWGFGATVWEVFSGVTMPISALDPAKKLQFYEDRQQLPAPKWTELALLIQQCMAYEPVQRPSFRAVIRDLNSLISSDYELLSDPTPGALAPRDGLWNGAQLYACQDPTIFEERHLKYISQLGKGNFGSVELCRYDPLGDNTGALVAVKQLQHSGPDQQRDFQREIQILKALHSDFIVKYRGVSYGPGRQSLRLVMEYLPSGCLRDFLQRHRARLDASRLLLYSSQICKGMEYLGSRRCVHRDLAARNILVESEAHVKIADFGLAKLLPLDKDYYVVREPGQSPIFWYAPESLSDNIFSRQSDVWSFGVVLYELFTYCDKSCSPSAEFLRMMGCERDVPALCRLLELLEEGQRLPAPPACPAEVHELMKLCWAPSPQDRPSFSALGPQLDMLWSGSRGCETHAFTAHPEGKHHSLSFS
The settings on record: 10 µM, read-out: score (%).

The mark [9] stands for this setting: EGFR(L747-E749del. A750P), 10 µM.
The mark [10] stands for this setting: EGFR(L747-S752del. P753S), 10 µM.

Where “and” joins values, the source holds several entries; their conditions need not be identical. Equal values may be shown once. Read-outs that look alike come from different tables or passages of the source. A value given as a limit tells only on which side of the number the result lay.

T5 sequence (P22607 23-806 G697C): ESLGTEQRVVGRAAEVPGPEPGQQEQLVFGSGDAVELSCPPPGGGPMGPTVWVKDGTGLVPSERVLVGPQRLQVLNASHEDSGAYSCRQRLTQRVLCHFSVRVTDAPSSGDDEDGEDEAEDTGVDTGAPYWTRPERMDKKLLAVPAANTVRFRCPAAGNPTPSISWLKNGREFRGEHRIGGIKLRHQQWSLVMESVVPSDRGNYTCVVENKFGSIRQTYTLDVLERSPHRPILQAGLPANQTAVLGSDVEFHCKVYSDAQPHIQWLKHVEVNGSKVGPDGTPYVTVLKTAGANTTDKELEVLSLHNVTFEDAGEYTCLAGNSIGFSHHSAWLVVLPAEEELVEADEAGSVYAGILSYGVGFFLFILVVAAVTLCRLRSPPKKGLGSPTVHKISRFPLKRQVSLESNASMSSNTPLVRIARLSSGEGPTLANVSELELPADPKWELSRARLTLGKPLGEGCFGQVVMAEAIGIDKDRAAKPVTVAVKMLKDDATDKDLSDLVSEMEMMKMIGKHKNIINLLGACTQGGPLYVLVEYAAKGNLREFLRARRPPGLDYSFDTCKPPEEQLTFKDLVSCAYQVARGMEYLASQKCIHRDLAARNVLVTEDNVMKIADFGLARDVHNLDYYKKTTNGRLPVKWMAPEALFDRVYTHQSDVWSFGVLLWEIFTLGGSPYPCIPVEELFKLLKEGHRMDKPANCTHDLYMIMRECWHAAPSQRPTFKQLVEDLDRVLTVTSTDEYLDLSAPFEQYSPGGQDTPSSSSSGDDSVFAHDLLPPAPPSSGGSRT
T3 sequence (P51812 whole entry): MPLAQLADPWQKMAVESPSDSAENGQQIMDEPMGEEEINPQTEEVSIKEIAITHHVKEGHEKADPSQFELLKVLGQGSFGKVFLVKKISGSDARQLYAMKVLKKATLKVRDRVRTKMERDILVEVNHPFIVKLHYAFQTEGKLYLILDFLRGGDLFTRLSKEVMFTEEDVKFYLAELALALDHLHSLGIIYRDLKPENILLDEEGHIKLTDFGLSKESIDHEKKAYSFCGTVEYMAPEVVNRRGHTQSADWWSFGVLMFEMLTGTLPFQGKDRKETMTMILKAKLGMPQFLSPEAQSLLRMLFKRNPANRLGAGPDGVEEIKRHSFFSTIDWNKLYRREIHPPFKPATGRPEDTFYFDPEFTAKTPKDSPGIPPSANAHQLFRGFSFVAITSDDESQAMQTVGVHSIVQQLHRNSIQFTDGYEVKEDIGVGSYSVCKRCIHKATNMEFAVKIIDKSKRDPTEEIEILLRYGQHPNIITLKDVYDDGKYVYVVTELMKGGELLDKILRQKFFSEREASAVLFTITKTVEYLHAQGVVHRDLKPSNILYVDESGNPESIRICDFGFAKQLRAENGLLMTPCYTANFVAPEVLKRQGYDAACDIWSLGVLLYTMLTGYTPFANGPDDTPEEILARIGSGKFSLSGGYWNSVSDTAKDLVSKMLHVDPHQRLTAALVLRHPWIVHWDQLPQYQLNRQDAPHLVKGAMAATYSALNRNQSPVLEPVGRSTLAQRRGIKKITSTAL
T2 sequence (P27448 whole entry): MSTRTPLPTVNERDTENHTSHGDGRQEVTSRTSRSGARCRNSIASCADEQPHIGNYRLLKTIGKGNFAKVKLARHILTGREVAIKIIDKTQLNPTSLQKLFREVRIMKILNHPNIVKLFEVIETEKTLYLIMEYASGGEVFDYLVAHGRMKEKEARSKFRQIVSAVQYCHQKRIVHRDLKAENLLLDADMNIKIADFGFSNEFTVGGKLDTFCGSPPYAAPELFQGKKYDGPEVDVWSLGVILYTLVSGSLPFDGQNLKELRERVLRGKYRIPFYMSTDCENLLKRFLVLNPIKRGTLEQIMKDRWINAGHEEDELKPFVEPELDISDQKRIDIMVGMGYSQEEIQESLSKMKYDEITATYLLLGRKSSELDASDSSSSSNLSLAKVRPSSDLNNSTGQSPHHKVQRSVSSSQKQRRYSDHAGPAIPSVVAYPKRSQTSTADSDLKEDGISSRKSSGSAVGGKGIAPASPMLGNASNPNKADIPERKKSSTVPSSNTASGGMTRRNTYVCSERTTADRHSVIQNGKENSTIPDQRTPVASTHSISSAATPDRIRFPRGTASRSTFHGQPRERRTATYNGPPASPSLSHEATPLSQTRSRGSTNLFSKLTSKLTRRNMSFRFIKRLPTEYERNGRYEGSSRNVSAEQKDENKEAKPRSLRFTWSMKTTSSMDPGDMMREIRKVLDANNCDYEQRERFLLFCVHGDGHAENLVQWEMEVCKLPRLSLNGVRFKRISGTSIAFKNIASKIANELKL
T6 sequence (O95819 whole entry): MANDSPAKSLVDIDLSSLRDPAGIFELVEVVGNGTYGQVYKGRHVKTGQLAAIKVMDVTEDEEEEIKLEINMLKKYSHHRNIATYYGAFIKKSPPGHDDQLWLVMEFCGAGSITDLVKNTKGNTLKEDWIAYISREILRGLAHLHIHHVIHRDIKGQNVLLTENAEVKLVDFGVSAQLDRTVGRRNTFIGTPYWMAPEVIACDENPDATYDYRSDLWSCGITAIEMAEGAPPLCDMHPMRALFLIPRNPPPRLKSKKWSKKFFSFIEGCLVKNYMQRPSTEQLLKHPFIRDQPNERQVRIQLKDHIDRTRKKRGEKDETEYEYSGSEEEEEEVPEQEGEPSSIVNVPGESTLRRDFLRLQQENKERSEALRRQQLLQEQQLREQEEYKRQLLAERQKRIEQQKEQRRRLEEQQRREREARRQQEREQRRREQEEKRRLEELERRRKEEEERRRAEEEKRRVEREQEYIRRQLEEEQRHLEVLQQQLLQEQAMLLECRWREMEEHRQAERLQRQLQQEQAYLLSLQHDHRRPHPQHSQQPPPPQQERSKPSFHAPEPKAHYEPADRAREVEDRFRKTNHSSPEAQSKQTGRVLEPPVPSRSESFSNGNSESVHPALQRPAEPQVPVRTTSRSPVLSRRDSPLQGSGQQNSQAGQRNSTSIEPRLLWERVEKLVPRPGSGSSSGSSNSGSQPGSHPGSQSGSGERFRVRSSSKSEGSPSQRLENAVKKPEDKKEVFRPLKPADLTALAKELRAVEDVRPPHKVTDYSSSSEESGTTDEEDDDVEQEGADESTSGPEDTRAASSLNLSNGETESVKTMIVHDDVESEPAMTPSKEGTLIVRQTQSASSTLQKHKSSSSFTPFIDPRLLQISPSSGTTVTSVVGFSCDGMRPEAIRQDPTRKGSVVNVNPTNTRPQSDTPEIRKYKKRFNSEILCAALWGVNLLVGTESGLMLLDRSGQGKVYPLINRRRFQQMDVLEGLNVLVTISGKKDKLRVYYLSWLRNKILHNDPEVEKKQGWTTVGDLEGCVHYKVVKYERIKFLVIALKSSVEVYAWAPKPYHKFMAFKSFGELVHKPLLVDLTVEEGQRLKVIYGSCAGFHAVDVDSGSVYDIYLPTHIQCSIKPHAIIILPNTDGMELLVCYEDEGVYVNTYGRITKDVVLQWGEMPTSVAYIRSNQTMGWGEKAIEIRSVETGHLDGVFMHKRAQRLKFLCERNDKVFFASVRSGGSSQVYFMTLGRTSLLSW

As to `CCN1CCN(Cc2ccc(NC(=O)c3ccc(C)c(NC(=O)c4cncc(-c5cccs5)c4)c3)cc2C(F)(F)F)CC1` [ALW-II-41-27], the remaining binding at 10 µM at KinomeScan kinase panel [1] is more than 30%; on KinomeScan kinase panel [2], more than 30%; at KinomeScan kinase panel [3] (kinase RPS6KA3(Kin.Dom.1-N-terminal)), more than 30%; at KinomeScan kinase panel [4] (PRKG2, 10 µM) it was more than 30%; at KinomeScan kinase panel [5], more than 30%; on KinomeScan kinase panel [6], 6.4%. Besides, the remaining binding at 10 µM on KinomeScan kinase panel [8] (JAK3(JH1domain-catalytic)) stood at 3.7%. In addition, the “score (%)” value in the test on KinomeScan kinase panel [7] was 0.55% and 3% and 1.8%; in the test on KinomeScan kinase panel [7] (FLT3(ITD), 10 µM), 0.4%; in the test with KinomeScan kinase panel [7] (kinase TAO1, 10 µM) it was 12%.

Turning to `CCN1CCN(Cc2ccc(NC(=O)c3ccc(C)c(/C=C/c4cnc5[nH]ccc5c4Cl)c3)cc2C(F)(F)F)CC1` [HG-6-63-01, (E)-3-(2-(4-chloro-1H-pyrrolo[2,3-b]pyridin-5-yl)vinyl)-N-(4-((4-ethylpiperazin-1-yl)methyl)-3-(trifluoromethyl)phenyl)-4-methylbenzamide], the remaining binding at 10 µM on KinomeScan kinase panel [1] is more than 30%; on KinomeScan kinase panel [2], 29%; on KinomeScan kinase panel [3] (RPS6KA3(Kin.Dom.1)), more than 30%; at KinomeScan kinase panel [4] (PRKG2, 10 µM) it was more than 30%; at KinomeScan kinase panel [5], 2.4%; on KinomeScan kinase panel [6] it was 0.3%. The remaining binding at 10 µM on KinomeScan kinase panel [8] (JAK3(Kin.Dom.2)) came to 3.5%. For the same compound, the “score (%)” value is reported as 0% in the test on KinomeScan kinase panel [7] (setting [9]); 0% in the test with KinomeScan kinase panel [7] (setting [10]); 0% in the test on KinomeScan kinase panel [7] (EGFR(L747-T751del.Sins), 10 µM); 0.1% in the test with KinomeScan kinase panel [7] (FLT3(ITD), 10 µM).

Turning to `CCN1CCN(Cc2ccc(NC(=O)c3ccc(C)c(C#Cc4cccnc4)c3)cc2C(F)(F)F)CC1` [XMD15-44], the remaining binding at 10 µM at KinomeScan kinase panel [1] was 62%; at KinomeScan kinase panel [2], more than 30%; at KinomeScan kinase panel [3] (kinase RSK2(Kin.Dom.1-N-terminal)) it was 16%; on KinomeScan kinase panel [4] (kinase PRKG2, 10 µM) it was 97%; at KinomeScan kinase panel [5] it was 0.05%; on KinomeScan kinase panel [6], 3.3%. Besides, the remaining binding at 10 µM at KinomeScan kinase panel [8] (JAK3(JH1domain-catalytic)) was 2.3%. The “score (%)” value is recorded as 1.2% in the test with KinomeScan kinase panel [7] (setting [9]); 0.9% with KinomeScan kinase panel [7] (setting [10]); 0.45% in the test with KinomeScan kinase panel [7] (EGFR(L747-T751del.Sins), 10 µM); 0.1% in the test on KinomeScan kinase panel [7] (FLT3(ITD), 10 µM).

Source of the values: paper PMC4457528, “Identification of Novel Small Molecule Inhibitors of Oncogenic RET Kinase” (PLoS ONE, 2015).
